Reference: PubChem BioAssay (NCI)
Several values for one entry are separate records, joined by “and”; a condition that tells them apart may be missing. Equal values may be shown once.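 Cultured in 96-well plates, cells were exposed to test compound for 48 hours across five concentrations. Here, GI50 denotes the concentration required for 50% inhibition of growth. TGI: total growth inhibition.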

Legend:
Assay in all cases: NCI anticancer screen, dose series, 48 h
TK-10 renal = tested on: TK-10 renal
HS 578T breast = tested on: HS 578T breast
SK-MEL-2 melanoma = tested on: SK-MEL-2 melanoma
EKVX NSCLC = tested on: EKVX NSCLC
MCF7 breast = tested on: MCF7 breast
CAKI-1 renal = tested on: CAKI-1 renal
SF-539 CNS = tested on: SF-539 CNS
SK-MEL-28 melanoma = tested on: SK-MEL-28 melanoma
BT-549 breast = tested on: BT-549 breast
786-0 renal = tested on: 786-0 renal

Compound	GI50 (TK-10 renal) [µM]	TGI (TK-10 renal) [µM]	GI50 (HS 578T breast) [µM]	TGI (HS 578T breast) [µM]	GI50 (SK-MEL-2 melanoma) [µM]	TGI (SK-MEL-2 melanoma) [µM]	GI50 (EKVX NSCLC) [µM]	TGI (EKVX NSCLC) [µM]	GI50 (MCF7 breast) [µM]	TGI (MCF7 breast) [µM]	GI50 (CAKI-1 renal) [µM]	TGI (CAKI-1 renal) [µM]	GI50 (SF-539 CNS) [µM]	TGI (SF-539 CNS)	GI50 (SK-MEL-28 melanoma) [µM]	TGI (SK-MEL-28 melanoma)	GI50 (BT-549 breast) [µM]	TGI (BT-549 breast) [µM]	GI50 (786-0 renal) [µM]	TGI (786-0 renal) [µM]
Cc1ccc(SC2=CC(=O)c3nc4ccccc4c4ccnc2c34)cc1	53.6	> 100	43.8	> 95	21.2	58.2	35	> 100	26.8	> 68.6	25.5	63.8	33.9	83 µM	> 100	> 100 µM	> 62.9	> 100	24.5	> 58.1
O=C(O)c1cc(N=Cc2ccccc2O)cc(C(=O)O)c1	–	> 100	–	> 100	–	> 100	–	> 100	–	> 100	–	> 100	–	> 100 µM	–	> 100 µM	–	> 100	–	> 100
CN(C)C(=O)c1cc2cnc(Nc3ccc(-c4csc5c(=O)cc(N6CCOCC6)oc45)cc3)nc2n1C1CCCC1	0.194	> 100	0.134	0.648	0.236	0.679	0.214	1.98	0.0881	1.01	0.152	1.15	0.154	0.417 µM	0.207	0.869 µM	0.166	0.686	0.162	4.25
COc1ccccc1/C=N\N=C(N/N=C/c1ccccc1OC)N/N=C/c1ccccc1OC	6.01	> 100	2.88	53.2	5.51	> 100	2.68	> 100	3.02	23.5	2.08	6.19	4.27	> 100 µM	6.41	> 100 µM	2.88	9.83	3.25	67.2
COc1cccc2c1C(=O)c1c(O)c3c(c(O)c1C2=O)C[C@@](O)(C(=O)CO)C[C@@H]3OC1C[C@H](N)[C@H](O)[C@H](C)O1 (some centres undefined)	0.177	–	0.132	–	0.141	5.47	0.201	5.28	0.00926	4.15	–	4.18	0.0387	0.528 µM	0.0797	0.198 µM	0.059	0.241	0.0324	1.19
O=C(Cc1cccc(OC(F)(F)F)c1)Nc1ccc(CCCCc2nnc(NC(=O)Cc3ccccn3)s2)nn1	11.7	24.5	13.8	40.2	19	47.5	13.3	68.7	16.5	> 100	4.81	> 100	15.7	50.3 µM	93.1	> 100 µM	27.9	> 100	11.4	27.5
COc1cc2c[n+](C)c3c4ccccc4ccc3c2cc1OC (tested in a mixture with another compound)	–	87.3	3.35	18.4	4.25	21.8	1.47	41.8	19.8	–	–	> 83	1.54	5.65 µM and 25 µM	2.89	8.22 µM and 18.6 µM	11	24.6	4.53	39.5
Cc1cc(C)c(O)c(CN(C)Cc2cc(Cl)cc(Cl)c2O)c1	4.95	25.6	5.41	32.8	6.52	19.6	4.52	30.7	3.28	14.3	2.77	12.2	6.43	25.1 µM	11.4	24 µM	11.8	27.3	9.38	28.6
c1ccc(-c2nc(-c3ccccc3)c(-c3ccccc3)[nH]2)cc1	–	> 100	–	> 82	–	> 100	–	> 100	–	> 100	–	> 100	–	> 100 µM	–	> 100 µM	–	> 100	–	> 100
C=C1C(=O)O[C@H]2[C@H]1CC/C(COC(=O)CSCC(=O)OC/C1=C/CC[C@@]3(C)O[C@H]3[C@H]3OC(=O)C(=C)[C@@H]3CC1)=C\CC[C@@]1(C)O[C@@H]21	1.69	3.27	3.52	19.3	2.12	5.62	1.82	4.12	0.48	2.33	1.57	3	2.04	5.08 µM	1.55	3.61 µM	1.42	2.9	1.5	3.22
